Test results: patent US8609724B2, “Method of treating cancer using dichloroacetate” (priority 2005, dated 2013)
Entries after “also recorded” stand apart in the source; their conditions may differ.

Legend:
[1] = test system: cancer cells; experiment: Free cytosolic calcium (fluo-3, confocal); format: cell-based, human; conditions: treated vs control cells
[2] = test system: NFAT; experiment: NFAT and Kv1.5 confocal imaging; format: cell-based, human; conditions: A549 cells
Method: Imaging was performed using a Zeiss LSM 510 confocal microscope as described. Apoptag apoptosis detection kit (TUNEL stain, Serologicals, Norcross, Ga.) and the proliferating cell nuclear antigen (PCNA) antibody (DAKO, Carpinteria, Calif.) were used as per manufacturer's instructions on both formaldehyde fixed cells and paraffin-embedded tissue sections after antigen retrieval. Nuclear staining was made using 4′,6′-diamidino-2-phenylindole dihydrochloride (DAPI, 300 nM; Molecular Probes) in fixed tissue or cells as previously described Apoalert Annexin V kit (Clontech, Palo Alto, Calif.), cytochrome c antibody (Pharmingen, San Diego, Calif.), Apoptosis inducing factor (Santa Cruz Calif. USA) NFAT and Kv1.5 (Sigma) and mitotracker red (500 nM, Molecular Probes) were used as described by the company instructions. Mitochondrial membrane potential (ΔΨm) was studied in live cancer cultured cells, using tetramethylrhodamine methyl-ester perchlorate (TMRM) (20 nmol/L) for 30 minutes (37° C.) and Hoechst (1.0 umol/L) nuclear staining for 10 minutes (Molecular Probes, Canada).

For `OO` [H2O2], the “free cytosolic calcium concentration” value [1] was “decreases the intracellular Ca++ levels; also recorded: Control cells had more calcium than both DCA and H2O2 treated cells”, the “Kv1.5 expression (confocal immunostaining)” value [2] was “increased Kv1.5 expression” and the “NFAT activation (nuclear localization)” value [2] was “blocked the activation of NFAT”.
